{"source": "patent EP0866684B1", "about": "“COSMETIC HAIR TREATMENT METHOD” (UNILEVER PLC, priority 1995, dated 1997)", "key": {"[1]": {"test_system": "isolated human hair follicles", "assay": "Diameter of hair fibres grown in vitro, Laser Scan Micrometer (Example 4)", "type": "cell-based", "settings": "range of cysteine concentrations, 7-11 days of culture", "experimental": "Follicles were isolated as described in Example 1 and placed into culture in supplemented Williams E medium containing a range of concentrations of cysteine. Following several days of culture(7-11), follicles were removed from the medium and the fibres isolated from the follicles as described above. The diameter of the fibres was measured using a modified Laser Scan Micrometer (Mitotoyu) coupled to a moving jig which was capable of rotating the fibre through 180° and moving the fibre through the laser beam at intervals of 0.2mm. Each isolated fibre contained a small part which was formally grown in vivo, the diameter of this \"in vivo\" end of the fibre. The diameter of the fibre grown in vitro was measured at intervals of 0.2mm along the fibre. For estimation of the effect of different media concentrations of cysteine on diameter, the average in vitro diameter was compared across the treatment concentrations of cysteine and the ratio of in vitro diameter to in vivo diameter was calculated."}, "sheep": {"test_system": "sheep", "settings": "cited from earlier work; for sulphur content of the \"new\" wool / wool growth: abomasal or intravenous infusion, sheep consuming roughage-based diets; for increase in fibre diameter: cysteine infusion, sheep wool"}, "[2]": {"test_system": "isolated human hair follicles", "assay": "Incorporation of radiolabelled cysteine into hair fibre in vitro (Example 2)", "type": "cell-based", "settings": "5 hours with a range of cysteine concentrations, partly radiolabelled; 48 hours chase; liquid scintillation counting of the fibre", "experimental": "Follicles were isolated as described in Example 1 and cultured for 5 hours in the presence of a range of concentrations of cysteine, a small proportion of which was radiolabelled. After 5 hours the follicles were transferred to normal supplemented Williams E medium to \"chase\" the radioactivity into the fibre being grown in the follicle, for 48 hours. The hair fibre was isolated from each follicle using a combination of detergent and enzyme and the 'naked' fibre dissolved and subjected to liquid scintillation counting."}, "[3]": {"test_system": "isolated human hair follicles", "assay": "In vitro hair follicle growth test: growth at varied cysteine concentration (Example 1)", "type": "cell-based", "settings": "concentration of cysteine + cystine (half cystine) varied in supplemented Williams E medium", "experimental": "The effect of cysteine on hair diameter was assessed using an in vitro test which uses isolated human hair follicles in a culture medium.\nHuman hair follicles were isolated from scalp skin by the methods described by Philpott et al J Cell Science 97 463-471, 1990. […] Follicles isolated in this way were cultured as described by Westgate et al Br. J. Dermatol 129 372-379, 1993 in a completely defined culture medium called Williams E medium (obtainable from ICN FLOW), the latter supplemented with antibiotics, glutamine, hydrocortisone and Insulin. In this example the concentration of cysteine + cystine (referred to as half cystine) was varied and the daily rate of growth of follicles measured."}, "[4]": {"test_system": "isolated human hair follicles", "assay": "Fibre diameter after change from lower to higher cysteine concentration (Example 5)", "type": "cell-based", "experimental": "Follicles were isolated as described in Example 1 and cultured as described in Example 3. Fibres were isolated and diameter measured as described in Example 4. […] The change in diameter was calculated by taking, firstly the diameter at the narrowest part of the fibre for each of the three treatments and secondly the diameter of the fibre during growth after addition of cysteine - deemed to be the in vitro diameter, and taking the ratio of these to the in vivo diameter."}, "[5]": {"test_system": "isolated human hair follicles", "assay": "Growth of follicles moved from lower to higher cysteine medium (Example 3)", "type": "cell-based", "settings": "2 days in medium with lower cysteine, then moved to medium with a higher amount of cysteine", "experimental": "Human hair follicles were isolated as described in Example 1 and placed into culture in Williams E medium formulated to contain a lower concentration of cysteine. Follicles were cultured for 2 days in this medium then transferred to medium containing a higher amount of cysteine."}}, "note": "Like-named read-outs stand apart in the source and are kept apart here."}
{"smiles": "N[C@@H](CS)C(=O)O", "note": "[cysteine]", "values": [{"measurement": "diameter of the fibres", "setting": "[1]", "result": "dependent on the concentration of cysteine available to the follicles"}, {"measurement": "sulphur content of the \"new\" wool", "setting": "sheep", "result": "increased"}, {"measurement": "wool growth", "setting": "sheep", "result": "stimulates wool growth"}, {"measurement": "increase in fibre diameter", "setting": "sheep; typical value", "result": "1-3 µm"}, {"measurement": "increase in fibre diameter", "setting": "sheep", "result": "5-10%"}, {"measurement": "Incorporation of cysteine into human hair in vitro", "setting": "[2]", "result": "concentration dependent"}, {"measurement": "daily rate of growth of follicles", "setting": "[3]", "result": "growth increases with cysteine concentration in the medium"}, {"measurement": "diameter of the fibre", "setting": "[4]; after transfer to the higher concentration of cysteine (495.0µM)", "result": "increased again"}, {"measurement": "change in diameter (ratio to the in vivo diameter)", "setting": "[4]; follicles where the cysteine concentration was reversed", "result": "the fibre diameter was similarly reversed"}, {"measurement": "diameter of the fibre", "setting": "[4]; lower concentration of cysteine (9.0µM), compared with the in vivo diameter", "result": "decreased from the in vivo diameter"}, {"measurement": "growth rate", "setting": "[5]", "result": "increasing their growth rate"}]}
{"smiles": "CSCC[C@H](N)C(=O)O", "note": "[methionine, reference compound]", "values": [{"measurement": "sulphur content of the \"new\" wool", "setting": "sheep", "result": "increased"}, {"measurement": "wool growth", "setting": "sheep", "result": "stimulates wool growth"}]}
